Laboratory results from paper PMC8772772, “Enantioselective Synthesis and Pharmacological Evaluation of Aza-CGP37157–Lipoic Acid Hybrids for the Treatment of Alzheimer’s Disease” (Antioxidants, 2022).
Where “and” joins values, the source holds several entries; their conditions need not be identical. Equal values may be shown once.

Columns and labels:
NRF2 = NRF2 induction, luciferase expression in AREc32 cell line; type: cell-based; conditions: for CD (concentration required to double the specific luciferase activity): AREc32 cells, 0.3, 3, 10 and 30 μM (LA: 0.1–0.6 mM), mean ± SEM
Description: AREc32 cell line was kindly shared by Professor Roland Wolf (University of Dundee, UK). AREc32 cells were maintained in DMEM/glutamax/high glucose (Gibco, 61965-06, Madrid, Spain), supplemented with 1% penicillin–streptomycin (10,000 units) (SigmaAldrich, P4333, Madrid, Spain), geneticin (0.8 mg/mL) (Gibco, 11811-031) and 10% FBS (Gibco, 10270106), at 37 °C in a 5% CO2 air atmosphere. Cells were used from passage 4 to 18, and mycoplasma contamination was tested every 4 weeks. AREc32 cells were seeded in 96-well white plates (2 × 10^4 cells/well) for 24 h. Thereafter, cells were treated with each compound (0.3, 3, 10 and 30 µM) in duplicate for 24 h. Non-treated cells were included as basal luciferase expression and tert-butylhydroquinone (TBHQ, 10 μM) as positive control in each plate. Luciferase expression was evaluated by using the Luciferase Assay System (Promega, E1483, Madrid, Spain) by luminescence in an Orion II microplate luminometer (Berthold, Germany). Luciferase activity increase was normalized to basal conditions considered as 1. CD values (concentration required to double the luciferase activity) were calculated from dose–response curves of luciferase fold induction vs. compound concentration, fitted by non-linear regression and data interpolated to value 2.
To evaluate the influence of both stereogenic centers in the NRF2 induction capacity of aza-CGP37157-LA hybrids, we used the AREc32 cell line model by analyzing luciferase expression upon treatment with NRF2 inducers. AREc32 cells were exposed to increasing concentrations of tested compounds 7a–d (0.3, […], 10 and 30 μM) during 24 h; thereafter, luciferase expression was evaluated by luminescent assay to calculate the corresponding CD value (concentration to double luciferase expression). […] TBHQ was included as a positive control, and CGP37157, S- and R-LA, rac-3a and (rac,R)-3b and precursors derivatives (R-6 and S-6) were included for comparative purposes. […] Once R-LA is reduced, it might activate the phase II antioxidant response by acting as pro-oxidant over key Cys residues at KEAP1 to generate the corresponding lipoyl-cystinyl disulphide.

[1] = system: SH-SY5Y neuroblastoma cells; assay: Neuroprotection against okadaic acid hyperphosphorylation in SH-SY5Y cells (MTT); type: cell-based, human; conditions: for % Survival / % Protection: compound 1 μM 24 h, then compound + OA 24 h; for % Survival: basal = 100, OA alone 54.7; for % Protection: n.p = compound does not protect cells
Description: Human neuroblastoma SH-SY5Y cells were plated in 96-well clear multi-well plates (6 × 10^4 cells/well). The potential neuroprotective activity of compounds against OS was evaluated using the rotenone (30 μM) (SigmaAldrich, R8875) and oligomycin A (10 μM) (SigmaAldrich, 75351) (R/O) toxic mixture. Neuroprotection activity against Tau hyperphosphorylation was evaluated by using the okadaic acid (20 nM) model. Cells were pre-incubated with each compound (1 µM) for 24 h, and then treatments were removed and cells were incubated with compounds (1 µM) in the presence the corresponding toxic for additional 24 h. At the end of the experiments, viability was determined by the MTT method. Data were normalized from cell death induced by the toxic stimuli (considered as 100% cell death). Then, the protection percentages were calculated by subtracting from the death induced by toxic stimuli, the death in the presence of the compound.
The tetrazolium ring of MTT can be cleaved by active dehydrogenases to produce a formazan precipitate. At the end of the experiments, MTT (SigmaAldrich, M2003) stock solution was added to each well to achieve a final concentration of 0.5 mg/mL. Cells were incubated for 2 h. Thereafter, culture media was removed, and DMSO was added to each well to dissolve the formazan precipitate. Finally, absorbance was measured in a microplate reader (SPECTROstar nano, BMG Labtech) at 570 nm. Absorbance obtained in basal conditions was considered as 100% cell viability.
Considering these precedents, we envisaged the evaluation of our compounds in a hyperphosphorylation toxicity model induced by okadaic acid (OA), a protein phosphatase 2A inhibitor [58, 59]. This inhibition causes an imbalance between kinase and phosphatase action, leading to hyperphosphorylation of proteins, in particular, Tau. Thus, treatment of SH-SY5Y neuroblastoma cells with OA is a well-stablished model of Tau hyperphosphorylation. Similarly, to the method used for the OS model, we selected a pre-incubation/co-incubation protocol to evaluate the potential neuroprotection capacity related to the NRF2 induction/antioxidant properties of the compounds. Cells were treated with compounds (±)-6, R-6, S-6 or 7a–d (1 µM) during 24 h; thereafter, cells were co-treated with compounds (1 µM) and OA (20 nM) for a further 24 h. Melatonin was also included as a positive control. Finally, cellular viability was evaluated by the MTT method. […] Finally, the (R,S)-7c diastereomer was not able to afford any protection, a result that might be in line with its low NRF2 induction capacity.

HO-1 and GCLc = assay: Western blot of NRF2-dependent proteins HO-1 and GCLc in AREc32 cells; type: cell-based; conditions: 30 μM, 24 h, western blot vs basal
Description: AREc32 cells were seeded in 6 multi-well plates (1 × 10^6 cells/well) for 24 h and treated with compounds 7a and 7b (30 µM) and culture medium (basal) for 24 h. Thereafter, cells were collected and lysed in ice-cold lysis buffer (10% glycerol, 137 mM NaCl, 1% Nonidet P-40, 20 mM Tris HCl pH 7.5, 1 mM phenylmethylsulfonyl fluoride, 20 mM NaF, 1 mM sodium pyrophosphate, 1 μg/mL leupeptin and 1 mM Na3VO4). Then proteins (30 μg) were resolved by gel electrophoresis on sodium dodecyl sulfate–polyacrylamide (10% and 12%) and transferred to Immobilion-P membranes (MilliporeSigma, Madrid, Spain). The membranes were incubated with anti-GCLc (1:1000, Ab41463 (Abcam, Cambridge, MA, USA), anti-HO-1 (1:1000, ab68477, Abcam) or anti-Actin (1:100,000, A3854, Merck, Madrid, Spain). Peroxidase-conjugated secondary antibodies (1:10,000 and antirabbit: SC-2357, Santa Cruz Biotechnology, Dallas, TX, USA) were employed to detect the proteins by enhanced chemiluminescence. Band intensities corresponding to immunoblot detection of protein samples were quantitated with Fiji software.
Once in the nucleus, NRF2 binds to small MafG protein, and the resulting complex binds to the ARE sequences at the DNA to initiate the expression of phase II antioxidant proteins. HO-1 and GCLc are two prominent examples of antioxidant enzymes regulated by the NRF2-ARE pathway related to the heme group processing and the synthesis of glutathione, the major antioxidant defense inside the cells. […] Thereafter, protein expression was evaluated.

SMILES | luciferase activity increase at 30 μM (NRF2; AREc32 cells, 24 h, vs basal) | CD (concentration required to double the specific luciferase activity) (NRF2; 24 h) | neuroprotective capacity relative to (S,R)-7b, folds less potent ([1]; OA model, 1 µM) [folds] | % Survival [1] [%] | % Protection [1] | luciferase activity increase at 10 μM (NRF2; AREc32 cells, 10 μM, 24 h, vs basal) | NRF2 induction potency relative to (S,S)-7a (NRF2; ratio of CD values) [fold] | GCLc expression (HO-1 and GCLc) | HO-1 expression (HO-1 and GCLc)
O=C1CN(CCOC(=O)CCCC[C@@H]2CCSS2)[C@@H](c2ccccc2Cl)c2cc(Cl)ccc2N1 [(R,R)-7d, 2-((R)-7-Chloro-5-(2-chlorophenyl)-2-oxo-1,2,3,5-tetrahydro-4H-benzo[e][1,4]diazepin-4-yl)ethyl 5-((R)-1,2-dithiolan-3-yl)pentanoate] | significantly increase luciferase activity | over 30 μM | 2 | 63.3 ± 8.7 | 21% | – | – | – | –
O=C1CN(CCOC(=O)CCCC[C@@H]2CCSS2)[C@H](c2ccccc2Cl)c2cc(Cl)ccc2N1 [(R,S)-7c, 2-((S)-7-Chloro-5-(2-chlorophenyl)-2-oxo-1,2,3,5-tetrahydro-4H-benzo[e][1,4]diazepin-4-yl)ethyl 5-((R)-1,2-dithiolan-3-yl)pentanoate] | significantly increase luciferase activity | over 30 μM | – | 50.7 ± 15.6 | not protective and n.p | significantly increase luciferase activity | – | – | –
O=C1CN(CCOC(=O)CCCC[C@H]2CCSS2)[C@@H](c2ccccc2Cl)c2cc(Cl)ccc2N1 [(S,R)-7b, 2-((R)-7-Chloro-5-(2-chlorophenyl)-2-oxo-1,2,3,5-tetrahydro-4H-benzo[e][1,4]diazepin-4-yl)ethyl 5-((S)-1,2-dithiolan-3-yl)pentanoate] | – | 11.9 ± 1.3 µM | – | 70.6 ± 10.3 | 41.9% and 40.2% | – | 2.2 | significantly increased | significantly increased
O=C1CN(CCOC(=O)CCCC[C@H]2CCSS2)[C@H](c2ccccc2Cl)c2cc(Cl)ccc2N1 [(S,S)-7a, 2-((S)-7-Chloro-5-(2-chlorophenyl)-2-oxo-1,2,3,5-tetrahydro-4H-benzo[e][1,4]diazepin-4-yl)ethyl 5-((S)-1,2-dithiolan-3-yl)pentanoate] | – | 26.5 ± 1.3 µM | – | 63.2 ± 7.6 | 21.2% | – | – | significantly increased | significantly increased
